Earlier results on one compound are cited in EP1569663B1, “IFOSFAMIDE COMPOSITIONS FOR PARENTERAL ADMINISTRATION AND A PROCESS FOR THEIR PREPARATION” (Bharat Serums & Vaccines Ltd., priority 2002, dated 2004).

For data set [1] the following is noted: in water.
The next data set concerns mouse. The following applies: intravenous administration.

As to `O=P1(NCCCl)OCCCN1CCCl` (centres unmarked) [Ifosfamide, 3-(2-chtoroethyl)-2-[(2-chloroethyl)amino]-tetrahydro-2H-1,3,2-oxazaphosphorin-2-oxide], in data set [1], the water solubility entry was “about 100 mg/ml”. The LD50 with mouse is 338 mg/kg body weight.
